Assay results published in US8772031B2, “Composition for reprogramming somatic cells to generate induced pluripotent stem cells, comprising Oct4 in combination with Bmi1 or its upstream regulator, and method for generating induced pluripotent stem cells using the same” (Korea University Research and Business Foundation, priority 2009, dated 2014).

Key:
Type in all cases: cell-based
[1] = tested on: Bmi1 expression in mouse embryonic fibroblasts; experiment: Bmi1 expression by treatment with Shh or Shh analog (RT-PCR of downstream genes) under neural stem cell-culturing conditions; conditions: for expression of Gli1 and Bmi1 (RT-PCR) / expression of the Bmi1 target genes p16^Ink4a and p19^Arf (RT-PCR): DMEM/F12+B27+N2+bFGF+EGF; for Sox2 expression level: culture condition for neural stem cells
Protocol: Mouse embryonic fibroblasts were employed to generate embryonic stem cell-like cells. Embryos were taken from CF1 strain mice on embryonic day 13.5. Cells were cultured in DMEM (high glucose, w/o sodium pyruvate) supplemented with 10% FBS (Fetal bovine serum), 0.1 mM non-essential amino acid, 1% penicillin/streptomycin and 0.1 mM β-mercaptoethanol in tissue culture flasks, after which fibroblasts at the 3rd passage were seeded at a density of 2×10^5 cells/well into 6-well plates.
(§1) The fibroblasts prepared in Example 1 were examined for Bmi1 expression when they were treated with Shh or an analog thereof, such as oxysterol or purmorphamine. FIGS. 9A, 14A and 22A are RT-PCR results showing the effect of Shh (Sonic hedgehog), known as an upstream regulator of Bmi1, or its analogs on the expression of genes downstream thereof.

[2] = tested on: mouse embryonic fibroblasts; experiment: Reprogramming of treated fibroblasts into neural stem cell-like cells (morphology, AP staining, immunochemistry); conditions: neural stem cell-culturing conditions, immunochemistry for SSEA1, Nestin, Sox2
Protocol: as §1
The induced neural stem cell-like cells were positively analyzed by AP staining and immunochemistry for SSEA1, Nestin and Sox2 (FIGS. 9C, 14C and 22C).

[3] = tested on: adult mouse embryonic fibroblasts; experiment: Establishment of iPS cells (OO-iPS-TTF #1, 2) by Oct4 introduction during treatment with oxysterol; conditions: oxysterol 0.1 μM and 0.5 μM with Oct4 introduction
Source text: The reprogramming method established with mouse embryonic fibroblasts was applied to adult mouse embryonic fibroblasts. […] 00-iPS-TTF #1 and 2 were positively stained with AP and found to express SSEA1, Oct4, Sox2, and Nanog as measured by immunochemical staining assays (FIG. 19A).

[4] = tested on: mouse embryonic fibroblasts; experiment: Generation of iPS cells by retroviral Oct4 introduction during treatment with Shh or its analog, then embryonic stem cell culture conditions; conditions: Oct4 retrovirus three times at 16 hr intervals, treatment for 72 hrs, reprogramming process for 10-14 days
[5] = 0.1 μM and 0.5 μM of hydroxycholesterol
[6] = 0.5 μM or 1 μM of purmorphamine

Compound | expression of Gli1 and Bmi1 (RT-PCR) [1, 5] | expression of the Bmi1 target genes p16^Ink4a and p19^Arf (RT-PCR) [1, 5] | Sox2 expression level [1] | morphology and neural stem cell markers of the treated cells [2] | derivation of embryonic stem cell-like cells from adult fibroblasts [3] | appearance of ES cell-like colonies [4] | expression of Gli1 and Bmi1 (RT-PCR) [1, 6] | expression of the Bmi1 target genes p16^Ink4a and p19^Arf (RT-PCR) [1, 6]
C[C@H](CCCC(C)(C)O)[C@H]1CC[C@H]2[C@@H]3CC=C4C[C@@H](O)CC[C@]4(C)[C@H]3CC[C@]12C [hydroxycholesterol, 25-hydroxycholesterol] | upregulation | downregulation | increase | morphology similar to that of neural stem cells and express nestin and sox2 | allowed the derivation of embryonic stem cell-like cells | colonies appeared with the same morphology as ES cells |  | 
c1ccc2c(Oc3nc(Nc4ccc(N5CCOCC5)cc4)c4ncn(C5CCCCC5)c4n3)cccc2c1 [purmorphamine, 2-(1-Naphthoxy)-6-(4-morpholinoanilino)-9-cyclohexylpurine] |  |  | increase | morphology similar to that of neural stem cells and express nestin and sox2 |  | colonies appeared with the same morphology as ES cells | upregulation | downregulation
